Drawing on patent US7592336B2, “Hepatitis C virus inhibitors” (Bristol-Myers Squibb Company, priority 2005, dated 2009), this text covers IC50 and EC50 for six compounds.

Experiment [1] addresses T1, HCV NS3/4A protease complex, BMS strain (UniProt P27958, species not given/STRAIN_BMS).
T1 construct: said of H77 and J4L6S, not expressly of BMS; fused on or other part: A three-lysine solubilising tail at the NS4A C-terminus and purification on Ni-NTA are described for the H77 and J4L6S constructs
As to the kind of experiment: FRET peptide assay to monitor HCV NS3/4A proteolytic activity (BMS strain). The class given is biochemical, HCV genotype 1a. The settings on record: NS3/4A BMS strain; read-out: Activity Range (IC50). The text has this: HCV NS3 protease complexes, derived from the BMS strain, H77 strain or J4L6S strain, were generated, as described below. These purified recombinant proteins were generated for use in a homogeneous assay (see below) to provide an indication of how effective compounds of the present disclosure would be in inhibiting HCV NS3 proteolytic activity.
Serum from an HCV-infected patient was obtained from Dr. T. Wright, San Francisco Hospital. An engineered full-length cDNA (compliment deoxyribonucleic acid) template of the HCV genome (BMS strain) was constructed from DNA fragments obtained by reverse transcription-PCR (RT-PCR) of serum RNA (ribonucleic acid) and using primers selected on the basis of homology between other genotype 1a strains. From the determination of the entire genome sequence, a genotype 1a was assigned to the HCV isolate according to the classification of Simmonds et al. (See P Simmonds, K A Rose, S Graham, S W Chan, F McOmish, B C Dow, E A Follett, P L Yap and H Marsden, J. Clin. Microbiol., 31(6), 1493-1503 (1993)). […] The infectious clones, H77 (1a genotype) and J4L6S (1b genotype) were obtained from R. Purcell (NIH) and the sequences are published in Genbank (AAB67036, see Yanagi, M., Purcell, R. H., Emerson, S. U. and Bukh, J. Proc. Natl. Acad. Sci. U.S.A. 94(16), 8738-8743 (1997); AF054247, see Yanagi, M., St Claire, M., Shapiro, M., Emerson, S. U., Purcell, R. H. and Bukh, J, Virology 244 (1), 161-172. (1998)).
NS3/4A protease complex-containing fractions were pooled and loaded on a desalting column Superdex-S200 pre-equilibrated with buffer D (25 mM HEPES, pH 7.5, 20% glycerol, 300 mM NaCl, 0.2% Triton X-100, 10 mM βME). Sample was loaded at a flow rate of 1 mL/min. NS3/4A protease complex-containing fractions were pooled and concentrated to approximately 0.5 mg/ml. The purity of the NS3/4A protease complexes, derived from the BMS, H77 and J4L6S strains, were judged to be greater than 90% by SDS-PAGE and mass spectrometry analyses. The enzyme was stored at −80° C., thawed on ice and diluted prior to use in assay buffer.
The purpose of this in vitro assay was to measure the inhibition of HCV NS3 protease complexes, derived from the BMS strain, H77 strain or J4L6S strain, as described above, by compounds of the present disclosure. This assay provides an indication of how effective compounds of the present disclosure would be in inhibiting HCV NS3 proteolytic activity.
In order to monitor HCV NS3/4A protease activity, an NS3/4A peptide substrate was used. The substrate was RET S1 (Resonance Energy Transfer Depsipeptide Substrate; AnaSpec, Inc. cat #22991) (FRET peptide), described by Taliani et al. in Anal. Biochem. 240(2):60-67 (1996). The sequence of this peptide is loosely based on the NS4A/NS4B natural cleavage site for the HCV NS3 protease except there is an ester linkage rather than an amide bond at the cleavage site. The peptide also contains a fluorescence donor, EDANS, near one end of the peptide and an acceptor, DABCYL, near the other end. The fluorescence of the peptide is quenched by […] resonance energy transfer (RET) between the donor and the acceptor, but as the NS3 protease cleaves the peptide the products are released from RET quenching and the fluorescence of the donor becomes apparent.
The peptide substrate was incubated with one of the three recombinant NS3/4A protease complexes, in the absence or presence of a compound of the present disclosure. The inhibitory effects of a compound were determined by monitoring the formation of fluorescent reaction product in real time using a Cytofluor Series 4000.
Assay buffer: 50 mM HEPES, pH 7.5; 0.15M NaCl; 0.1% Triton; 15% Glycerol; 10 mM βME. Substrate: 2 μM final concentration (from a 2 mM stock solution in DMSO stored at −20° C.). HCV NS3/4A protease type 1a (1b), 2-3 nM final concentration (from a 5 μM stock solution in 25 mM HEPES, pH 7.5, 20% glycerol, 300 mM NaCl, 0.2% Triton-X100, 10 mM βME). […]

For experiment [2], the system named is HCV replicon in HUH-7 cells. Nature of the experiment: HCV replicon FRET assay. The settings on record: Hepatitis C virus, Huh-7; HCV replicon cell assay; read-out: Activity Range (EC50). The class given is cell-based, HCV strain 1b. The text has this:
An HCV replicon whole cell system was established as described by Lohmann V, Korner F, Koch J, Herian U, Theilmann L, Bartenschlager R., Science 285(5424):110-3 (1999). This system enabled us to evaluate the effects of our HCV Protease compounds on HCV RNA replication. Briefly, using the HCV strain 1b sequence described in the Lohmann paper (Assession number: AJ238799), an HCV cDNA was synthesized by Operon Technologies, Inc. (Alameda, Calif.), and the full-length replicon was then assembled in plasmid pGem9zf(+) (Promega, Madison, Wis.) using standard molecular biology techniques. The replicon consists of (i) the HCV 5′ UTR fused to the first 12 amino acids of the capsid protein, (ii) the neomycin phosphotransferase gene (neo), (iii) the IRES from encephalomyocarditis virus (EMCV), and (iv) HCV NS3 to NS5B genes and the HCV 3′ UTR. Plasmid DNAs were linearized with ScaI and RNA transcripts were synthesized in vitro using the T7 MegaScript transcription kit (Ambion, Austin, Tex.) according to manufacturer's directions. In vitro transcripts of the cDNA were transfected into the human hepatoma cell line, HUH-7. […] Resulting cell lines were characterized for positive and negative strand RNA production and protein production over time.
The HCV replicon FRET assay was developed to monitor the inhibitory effects of compounds described in the disclosure on HCV viral replication. HUH-7 cells, constitutively expressing the HCV replicon, were grown in Dulbecco's Modified Eagle Media (DMEM) (Gibco-BRL) containing 10% Fetal calf serum (FCS) (Sigma) and 1 mg/ml G418 (Gibco-BRL). Cells were seeded the night before (1.5×10^4 cells/well) in 96-well tissue-culture sterile plates. Compound and no compound controls were prepared in DMEM containing 4% FCS, 1:100 Penicillin/Streptomysin (Gibco-BRL), 1:100 L-glutamine and 5% DMSO in the dilution plate (0.5% DMSO final concentration in the assay). Compound/DMSO mixes were added to the cells and incubated for 4 days at 37° C. After 4 days, cells were first assessed for cytotoxicity using alamar Blue (Trek Diagnotstic Systems) for a CC50 reading. The toxicity of compound (CC50) was determined by adding 1/10th volume of alamar Blue to the media incubating the cells. After 4 h, the fluorescence signal from each well was read, with an excitation wavelength at 530 nm and an emission wavelength of 580 nm, using the Cytofluor Series 4000 (Perspective Biosystems). Plates were then rinsed thoroughly with Phosphate-Buffered Saline (PBS) (3 times 150 μl). The cells were lysed with 25 μl of a lysis assay reagent containing an HCV protease substrate (5× cell Luciferase cell culture lysis reagent (Promega #E153A) diluted to 1× with distilled water, NaCl added to 150 mM final, the FRET peptide substrate (as described for the enzyme assay above) diluted to 10 μM final from a 2 mM stock in 100% DMSO. […]. The plate was then placed into the Cytofluor 4000 instrument which had been set to 340 nm excitation/490 nm emission, automatic mode for 21 cycles and the plate read in a kinetic mode. EC50 determinations were carried out as described for the IC50 determinations.

Each structure is given as a SMILES string.

T1 sequence (P27958 1027-1657, change not shown, one chain of several): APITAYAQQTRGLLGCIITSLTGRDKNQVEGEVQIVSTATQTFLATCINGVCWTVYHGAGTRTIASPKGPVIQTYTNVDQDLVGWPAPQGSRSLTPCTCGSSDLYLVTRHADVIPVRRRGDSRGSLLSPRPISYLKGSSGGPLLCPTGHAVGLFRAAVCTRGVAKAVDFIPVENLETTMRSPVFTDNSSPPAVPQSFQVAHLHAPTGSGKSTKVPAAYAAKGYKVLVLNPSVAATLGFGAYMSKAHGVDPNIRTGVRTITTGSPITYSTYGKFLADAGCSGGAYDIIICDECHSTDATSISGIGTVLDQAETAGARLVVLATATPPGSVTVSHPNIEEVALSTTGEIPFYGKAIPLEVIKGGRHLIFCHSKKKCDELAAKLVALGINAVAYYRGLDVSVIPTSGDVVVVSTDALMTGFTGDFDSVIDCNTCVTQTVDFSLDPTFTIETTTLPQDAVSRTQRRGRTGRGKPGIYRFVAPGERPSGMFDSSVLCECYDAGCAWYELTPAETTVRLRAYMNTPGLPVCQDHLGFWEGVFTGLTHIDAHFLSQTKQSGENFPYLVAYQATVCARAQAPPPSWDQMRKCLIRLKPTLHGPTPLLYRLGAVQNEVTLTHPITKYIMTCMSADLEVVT

Turning to `C=C[C@@H]1C[C@]1(NC(=O)[C@@H]1C[C@@](O)(c2ccccc2CN2CCOCC2)CN1C(=O)[C@@H](NC(=O)OC(C)(C)C)C(C)(C)C)C(=O)NS(=O)(=O)C1CC1` [Compound 20], in experiment [1], the IC50 (usually the point on the concentration scale where inhibition reaches its midpoint) lay in the range of 100 to 1000 nM. Also, the concentration giving a half-maximal response (EC50) (as a rule, the concentration needed to bring the measured effect to its halfway point) in experiment [2] was 1000 to 10000 nM.

In the case of `C=C[C@@H]1C[C@]1(NC(=O)[C@@H]1C[C@@](O)(c2cc(C)cc(C)c2)CN1C(=O)[C@@H](NC(=O)OC(C)(C)C)C(C)(C)C)C(=O)NS(=O)(=O)C1CC1` [Compound 21], in experiment [1], the IC50 lay within 1 to 100 nM. In experiment [2], the EC50 was in the range of 1000 to 10000 nM.

For `C=C[C@@H]1C[C@]1(NC(=O)[C@@H]1C[C@@](O)(c2ccc(F)c(C)c2)CN1C(=O)[C@@H](NC(=O)OC(C)(C)C)C(C)(C)C)C(=O)NS(=O)(=O)C1CC1` [Compound 22], the IC50 in experiment [1] is 100 to 1000 nM. In addition, the EC50 in experiment [2] lay within 1000 to 10000 nM.

Turning to `C=C[C@@H]1C[C@]1(NC(=O)[C@@H]1C[C@@](O)(c2ccc(C)c(F)c2)CN1C(=O)[C@@H](NC(=O)OC(C)(C)C)C(C)(C)C)C(=O)NS(=O)(=O)C1CC1` [Compound 23], the IC50 in experiment [1] was 100 to 1000 nM. In addition, the EC50 in experiment [2] is 1000 to 10000 nM.

In the case of `C=C[C@@H]1C[C@]1(NC(=O)[C@@H]1C[C@@](O)(c2cc(C)ccc2C)CN1C(=O)[C@@H](NC(=O)OC(C)(C)C)C(C)(C)C)C(=O)NS(=O)(=O)C1CC1` [Compound 24], in experiment [1], the half-inhibitory concentration (IC50) is 100 to 1000 nM. The EC50 in experiment [2] fell in the range of 1000 to 10000 nM.

On to `C=C[C@@H]1C[C@]1(NC(=O)[C@@H]1C[C@@](O)(c2cc(F)ccc2OC)CN1C(=O)[C@@H](NC(=O)OC(C)(C)C)C(C)(C)C)C(=O)NS(=O)(=O)C1CC1` [Compound 25], for which the IC50 in experiment [1] fell in the range of 100 to 1000 nM. The EC50 in experiment [2] was in the range of 1000 to 10000 nM.
